Data as given in ChEMBL document CHEMBL1201862, “PubChem BioAssay data set” (2004).
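Exposure lasted 48 hours, with cells grown in 96-well plates and compounds tested at five concentrations. GI50: concentration for 50% inhibition of growth.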 The source made the active and inactive calls. Rule as the data show it: active = GI50 up to about 1.1 µM and inactive = higher.

Assays:
Test in all cases: NCI anticancer screen, dose series, 48 h
[1] = system: 786-0
[2] = system: A549
[3] = system: CAKI-1
[4] = system: CCRF-CEM
[5] = system: HCT-15
[6] = system: HL-60
[7] = system: HOP-62
[8] = system: HOP-92
[9] = system: Hs-578T
[10] = system: K562
[11] = system: OVCAR-4
[12] = system: PC-3
[13] = system: SF-539
[14] = system: SK-MEL-28
[15] = system: SK-MEL-5
[16] = system: SK-OV-3
[17] = system: SR
[18] = system: UACC-257
[19] = system: MOLT-4

Structure (SMILES)	GI50 [1]	GI50 [2]	GI50 [3]	GI50 [4]	GI50 [5]	GI50 [6]	GI50 [7]	GI50 [8]	GI50 [9]	GI50 [10]	GI50 [11]	GI50 [12]	GI50 [13]	GI50 [14]	GI50 [15]	GI50 [16]	GI50 [17]	GI50 [18]	GI50 [19]
CC1CC(C)(C)CC(OCCN2CCCCC2)(c2ccccc2)C1 (stereo unspecified)	10.1 µM (inactive)	11 µM (inactive)	12.7 µM (inactive)	6.5 µM (inactive)	10.2 µM	11.4 µM (inactive)	13.2 µM (inactive)	8.17 µM (inactive)	13.3 µM (inactive)	13 µM (inactive)	11.3 µM (inactive)	12.2 µM (inactive)	15.6 µM (inactive)	15.7 µM (inactive)	10 µM (inactive)	14.7 µM (inactive)	4.97 µM (inactive)	11.6 µM (inactive)	
CCNCCCNc1c2ccccc2nc2ccccc12	0.552 µM (active)	0.64 µM (active)	0.334 µM (active)	0.514 µM (active)	0.366 µM	0.493 µM (active)	0.402 µM (active)	0.469 µM (active)	0.653 µM (active)	0.329 µM (active)	0.478 µM (active)	0.245 µM (active)	0.279 µM (active)	0.401 µM (active)	0.375 µM (active)	1.33 µM (inactive)	0.285 µM (active)	0.424 µM (active)	0.313 µM (active)
CCN(CC)CCn1ncc2c3c(=O)c4cccnc4n(CCN(CC)CC)c3ccc21	5.97 µM (inactive)	> 10 µM (inactive)	> 10 µM (inactive)	4.98 µM (inactive)	5.25 µM	8.2 µM (inactive)	> 10 µM (inactive)	> 10 µM (inactive)	8.67 µM (inactive)	> 10 µM (inactive)	4.44 µM (inactive)	> 10 µM (inactive)	9.27 µM (inactive)	> 10 µM (inactive)	> 10 µM (inactive)	> 10 µM (inactive)	6.98 µM (inactive)	> 10 µM (inactive)	4.39 µM (inactive)
COc1ccccc1C1C2=C(COC2=O)Oc2cc3c(cc21)OCO3 (stereo unspecified)	3.18 µM (inactive)	3.87 µM (inactive)	3.55 µM (inactive)	2.13 µM (inactive)	1.16 µM	0.44 µM (active)	3.93 µM (inactive)	8.3 µM (inactive)	2.22 µM (inactive)	0.706 µM (active)	11.7 µM (inactive)	2.12 µM (inactive)	1.97 µM (inactive)	4.73 µM (inactive)	1.93 µM (inactive)	3.46 µM (inactive)	0.792 µM (active)	21.1 µM (inactive)	1.59 µM (inactive)
NNC(=O)CSc1nnc(CCCCCCCCc2nnc(SCC(=O)NN)o2)o1	> 100 µM (inactive)	> 100 µM (inactive)	> 100 µM (inactive)	> 100 µM (inactive)	> 100 µM	> 100 µM (inactive)	> 100 µM (inactive)	> 100 µM (inactive)	> 100 µM (inactive)	> 100 µM (inactive)	> 100 µM (inactive)	> 100 µM (inactive)		> 100 µM (inactive)	> 100 µM (inactive)	> 100 µM (inactive)	> 100 µM (inactive)	> 100 µM (inactive)	> 100 µM (inactive)
Cc1cc(Cl)ccc1NC(=O)/C(Cc1nc2ccc(C(=O)c3ccccc3)cc2nc1O)=N/NC(=O)c1ccncc1	> 100 µM (inactive)	> 100 µM (inactive)	> 100 µM (inactive)	> 100 µM (inactive)	92 µM	95.9 µM (inactive)	> 100 µM (inactive)	> 100 µM (inactive)	> 100 µM (inactive)	63.7 µM (inactive)	> 100 µM (inactive)	> 100 µM (inactive)	> 100 µM (inactive)	> 100 µM (inactive)	92 µM (inactive)	> 100 µM (inactive)	21.7 µM (inactive)	> 100 µM (inactive)	64.3 µM (inactive)
Cc1cc(S(=O)(=O)N=C2N(Cc3ccccc3)CCN2Cc2ccccc2)c(S)cc1Cl	> 100 µM (inactive)	> 100 µM (inactive)	> 100 µM (inactive)	> 100 µM (inactive)	> 100 µM	> 100 µM (inactive)	> 100 µM (inactive)	> 100 µM (inactive)	> 100 µM (inactive)	> 100 µM (inactive)	> 100 µM (inactive)	27.7 µM (inactive)	> 100 µM (inactive)	> 100 µM (inactive)	> 100 µM (inactive)	> 100 µM (inactive)	95.9 µM (inactive)	> 100 µM (inactive)	> 100 µM (inactive)
